Changes are numbered by the printed parent chain. Values joined by “and” are separate entries in the source; they are usually repeats but may differ in a detail not shown here. Equal values may be shown once. “Also recorded” adds a separate entry of the source. Read-outs that look alike come from different tables or passages of the source. One block for each molecule: values may come before it.
Experiments:
RNR-β = target: T1, RNR-β (Homo sapiens, UniProt P31350); test: RNR β-specific activity assay; format: biochemical
T1 sequence (P31350 1-389): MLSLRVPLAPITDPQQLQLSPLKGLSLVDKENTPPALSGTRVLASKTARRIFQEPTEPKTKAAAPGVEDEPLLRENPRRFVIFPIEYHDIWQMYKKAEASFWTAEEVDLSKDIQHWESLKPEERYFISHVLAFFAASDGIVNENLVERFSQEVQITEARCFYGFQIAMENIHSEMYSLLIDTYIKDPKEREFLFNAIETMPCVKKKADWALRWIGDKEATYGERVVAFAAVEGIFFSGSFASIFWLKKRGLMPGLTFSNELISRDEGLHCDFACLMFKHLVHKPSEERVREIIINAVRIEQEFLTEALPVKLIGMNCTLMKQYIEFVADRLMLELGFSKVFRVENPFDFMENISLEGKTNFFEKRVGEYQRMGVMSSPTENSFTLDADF

[1] = tested on: Flp-In 293 T-REx cells expressing RNR-α-Flag; test: Proliferation inhibition assay
[2] = tested on: Flp-In 293 T-REx cells expressing D57N-α-Flag; test: Proliferation inhibition assay
wt-mouse-(m)RNR-α = target: T2, wt-mouse-(m)RNR-α (Mus musculus, UniProt P07742); format: cell-based; conditions: 3 h treatment; 5, 50, 300 μM ClF, ClA, FlUMP; wt-mRNR-α 3T3 cells
T2 sequence (P07742 1-792): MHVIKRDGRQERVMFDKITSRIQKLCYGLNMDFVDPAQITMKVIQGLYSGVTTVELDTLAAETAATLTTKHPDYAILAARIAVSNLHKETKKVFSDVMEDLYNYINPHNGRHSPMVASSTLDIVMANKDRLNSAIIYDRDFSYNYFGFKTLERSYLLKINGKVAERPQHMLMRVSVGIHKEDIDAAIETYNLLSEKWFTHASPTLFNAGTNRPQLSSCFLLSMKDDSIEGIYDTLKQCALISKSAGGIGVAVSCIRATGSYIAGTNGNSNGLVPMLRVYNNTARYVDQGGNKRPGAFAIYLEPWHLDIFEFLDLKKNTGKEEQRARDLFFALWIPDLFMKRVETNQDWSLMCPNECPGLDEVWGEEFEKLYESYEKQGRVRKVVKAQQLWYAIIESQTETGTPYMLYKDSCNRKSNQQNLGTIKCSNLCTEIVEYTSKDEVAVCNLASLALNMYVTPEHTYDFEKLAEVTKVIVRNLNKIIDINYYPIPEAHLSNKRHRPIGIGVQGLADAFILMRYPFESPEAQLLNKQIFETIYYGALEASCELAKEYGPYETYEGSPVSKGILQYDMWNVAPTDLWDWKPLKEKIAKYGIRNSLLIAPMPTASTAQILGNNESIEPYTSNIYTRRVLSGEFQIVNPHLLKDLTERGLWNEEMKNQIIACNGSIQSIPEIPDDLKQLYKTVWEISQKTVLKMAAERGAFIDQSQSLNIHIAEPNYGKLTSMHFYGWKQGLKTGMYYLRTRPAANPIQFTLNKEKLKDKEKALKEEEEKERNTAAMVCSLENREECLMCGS

[3] = target: T3, mutant (D57N)-mouse(m)RNR-α (Mus musculus, UniProt P07742, D57N); format: cell-based; conditions: 3 h treatment; 5, 50, 300 μM ClF, ClA, FlUMP; D57N-mRNR-α 3T3 cells
T3 sequence (P07742 1-792 D57N): T2 sequence (P07742 1-792) with D57N

D57N-human RNR-α mutant [4] = target: T4, D57N-human RNR-α mutant (Homo sapiens, UniProt P23921, D57N); test: Inhibition of D57N RNR-α reductase activity; format: biochemical; conditions: up to at least 10-fold above the Ki for wt
T4 sequence (P23921 1-792 D57N): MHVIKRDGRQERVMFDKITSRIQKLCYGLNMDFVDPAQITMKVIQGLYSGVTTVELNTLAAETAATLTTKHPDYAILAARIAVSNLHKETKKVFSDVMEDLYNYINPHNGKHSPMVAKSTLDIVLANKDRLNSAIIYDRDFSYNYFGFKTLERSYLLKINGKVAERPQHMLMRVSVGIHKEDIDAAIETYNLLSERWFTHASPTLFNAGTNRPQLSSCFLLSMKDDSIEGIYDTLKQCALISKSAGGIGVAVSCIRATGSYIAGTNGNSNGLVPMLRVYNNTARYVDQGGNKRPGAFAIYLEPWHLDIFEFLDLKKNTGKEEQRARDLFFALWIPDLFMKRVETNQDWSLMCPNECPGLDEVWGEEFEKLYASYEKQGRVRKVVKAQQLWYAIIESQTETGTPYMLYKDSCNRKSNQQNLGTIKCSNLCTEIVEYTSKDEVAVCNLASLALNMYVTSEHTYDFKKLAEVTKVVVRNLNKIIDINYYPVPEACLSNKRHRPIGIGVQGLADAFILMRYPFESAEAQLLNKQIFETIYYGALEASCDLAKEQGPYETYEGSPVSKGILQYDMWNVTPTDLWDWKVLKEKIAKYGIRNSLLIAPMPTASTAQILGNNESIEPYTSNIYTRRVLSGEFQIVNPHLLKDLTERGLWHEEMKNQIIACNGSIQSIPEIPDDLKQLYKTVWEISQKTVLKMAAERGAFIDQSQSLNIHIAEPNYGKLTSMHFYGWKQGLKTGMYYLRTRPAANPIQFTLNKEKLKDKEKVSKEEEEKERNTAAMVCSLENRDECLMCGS

RNR-α [5] = target: T5, RNR-α (Homo sapiens, UniProt P23921); test: Gel filtration analysis of RNR-α oligomeric state; conditions: for oligomeric state by gel filtration of α presaturated with dATP (S and A sites): running buffer without nucleotides
T5 sequence (P23921 1-792): T4 sequence (P23921 1-792 D57N) with N57D

RNR-α [6] = target: T5, RNR-α; test: FRET-quenching assay reporting ligand-driven RNR-α oligomerization
wild type RNR-α = target: T6, wild type RNR-α (Homo sapiens, UniProt P23921); test: Fluorescence anisotropy displacement of Texas Red-5-dATP from wild type RNR-α; conditions: for further decrease in FA after S site preblocked with saturating dTTP: RNR-α, T*-dATP, saturating ligand then added
T6 sequence (P23921 1-792): T4 sequence (P23921 1-792 D57N) with N57D

E. coli RNR = conditions: cited from earlier work
D57N RNR-α = target: T7, D57N RNR-α (Homo sapiens, UniProt P23921, D57N); test: Fluorescence anisotropy displacement of Texas Red-5-dATP from D57N RNR-α; format: binding; conditions: D57N RNR-α 6 μM, T*-dATP 1.2 μM
T7 sequence (P23921 1-792 D57N): T4 sequence (P23921 1-792 D57N)

D57N-human RNR-α mutant [7] = target: T4, D57N-human RNR-α mutant; conditions: CDP as substrate; cited from earlier work

β-specific activity (RNR-β): suppressed
Structure (SMILES): NC(=S)N/N=C/c1ncccc1N [triapine]

Structure (SMILES): Nc1nc(F)nc2c1ncn2[C@@H]1O[C@H](COP(=O)(O)O)[C@@H](O)[C@@H]1O [FlUMP]
effect of RNR-α overexpression on cytotoxicity relative to noninduced cells ([1]; 48 h drug): no protection
effect of D57N-α overexpression on cytotoxicity relative to noninduced cells ([2]; 48 h drug): no protection
RNR inhibition in cells (rate of [5-3H]-dCDP formation in lysate) (wt-mouse-(m)RNR-α): potent RNR inhibition
RNR reductase activity in D57N-α-expressing lines after drug treatment [3]: not suppressed

Structure (SMILES): Nc1nc(F)nc2c1ncn2[C@@H]1O[C@H](COP(=O)(O)OP(=O)(O)O)[C@@H](O)[C@@H]1O [FlUDP]
inhibition of D57N-α (D57N-human RNR-α mutant [4]): did not inhibit; also recorded: neither of the diphosphates inhibited
oligomeric state of eluted α by gel filtration (RNR-α [5]; 20 μM FlUDP included in running buffer): exclusively α6
time to complete oligomerization (time-dependent FRET) (RNR-α [6]): less than 5 min

Structure (SMILES): Nc1ccn([C@@H]2O[C@H](COP(=O)(O)OP(=O)(O)O)[C@@H](O)C2(F)F)c(=O)n1 [F2CDP, gemcitabine diphosphate]
inhibition of D57N-α (D57N-human RNR-α mutant [4]): inhibits D57N-α as effectively as the wild type; also recorded: promoted inactivation of D57N-α as well as wt-α

Structure (SMILES): Nc1nc(Cl)nc2c1ncn2[C@H]1C[C@H](O)[C@@H](CO)O1 [ClA, cladribine]
effect of RNR-α overexpression on cytotoxicity relative to noninduced cells [1]: small effect on the EC50
protection against cytotoxicity upon tet induction relative to noninduced [2]: > 20 fold
RNR inhibition in cells (rate of [5-3H]-dCDP formation in lysate) (wt-mouse-(m)RNR-α): potent RNR inhibition
RNR reductase activity in D57N-α-expressing lines after drug treatment [3]: not suppressed

oligomeric state by gel filtration of α presaturated with dATP (S and A sites) (RNR-α [5]): hexameric peak was observed
time to complete oligomerization (time-dependent FRET) (RNR-α [6]): less than 5 min
further decrease in FA after S site preblocked with saturating dTTP (wild type RNR-α): no statistically significant changes
Structure (SMILES): Nc1nc(Cl)nc2c1ncn2[C@H]1C[C@H](O)[C@@H](COP(=O)(O)OP(=O)(O)O)O1 [ClADP]
inhibition of D57N-α (D57N-human RNR-α mutant [4]): did not inhibit; also recorded: failed to inhibit; also recorded: neither of the diphosphates inhibited

Structure (SMILES): Nc1nc(Cl)nc2c1ncn2[C@@H]1O[C@H](COP(=O)(O)OP(=O)(O)OP(=O)(O)O)[C@@H](O)[C@@H]1F [ClFTP]
inhibition of E. coli RNR (E. coli RNR): failed to inhibit

drop in FA (D57N RNR-α): 39 ± 1%
drop in FA on addition of S-site binder (wild type RNR-α; RNR-α 6 μM, T*-dATP 1.2 μM, saturating ligand): 49 ± 1% and ~ 50%
Structure (SMILES): Cc1cn([C@H]2C[C@H](O)[C@@H](COP(=O)(O)OP(=O)(O)OP(=O)(O)O)O2)c(=O)[nH]c1=O [dTTP]

decrease in FA relative to dTTP/dGTP (fold less) (D57N RNR-α): ~ 7 fold
further decrease in FA after S site preblocked with saturating dTTP (wild type RNR-α): 20 ± 1% and ~ 20%
drop in FA on wild type protein compared with D57N (wild type RNR-α; ligand added in place of dTTP/dGTP): significantly higher drop in FA
Structure (SMILES): Nc1nc(Cl)nc2c1ncn2[C@H]1C[C@H](O)[C@@H](COP(=O)(O)OP(=O)(O)OP(=O)(O)O)O1 [ClATP]
inhibition of D57N-α (D57N-human RNR-α mutant [4]): unresponsive; also recorded: failed to inhibit

Structure (SMILES): Nc1nc(F)nc2c1ncn2[C@@H]1O[C@H](COP(=O)(O)OP(=O)(O)OP(=O)(O)O)[C@@H](O)[C@@H]1O [FlUTP]
inhibition of D57N-α (D57N-human RNR-α mutant [4]): unresponsive; also recorded: failed to inhibit
time to complete oligomerization (time-dependent FRET) (RNR-α [6]): less than 5 min

oligomeric state by gel filtration of α presaturated with dATP (S and A sites) (RNR-α [5]): only elutes as lower-order species
Structure (SMILES): Nc1ncnc2c1ncn2[C@H]1C[C@H](O)[C@@H](COP(=O)(O)OP(=O)(O)OP(=O)(O)O)O1 [dATP]
reduced affinity at the A site of D57N relative to wt (D57N-human RNR-α mutant [7]): ~ 300 fold

Structure (SMILES): Nc1ccn([C@@H]2O[C@H](CO)[C@@H](O)C2(F)F)c(=O)n1 [F2C, gemcitabine]
RNR reductase activity in D57N-α-expressing lines after drug treatment [3]: sensitive
